Assay results taken from PubChem BioAssay (NCI).
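How tested: cells in 96-well plates exposed to compound for 48 hours at five concentrations. At the TGI there is no net growth.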

Experiments:
Assay in all cases: inhibition of tumour cell growth, NCI panel, 48 h
DMS 114 small cell lung = test system: DMS 114 small cell lung
HOP-18 NSCLC = test system: HOP-18 NSCLC
DMS 273 small cell lung = test system: DMS 273 small cell lung
RXF-631 renal = test system: RXF-631 renal
M19-MEL melanoma = test system: M19-MEL melanoma
XF 498 CNS = test system: XF 498 CNS

Question: Which results are given for O=C1[C@H]2ON(c3ccccc3)C(c3ccc(Cl)cc3)[C@H]2C(=O)N1c1ccc(Cc2ccc(N3C(=O)[C@@H]4ON(c5ccccc5)C(c5ccc(Cl)cc5)[C@@H]4C3=O)cc2)cc1 (some centres undefined)?
Answer: TGI (DMS 114 small cell lung): > 100 µM; TGI (HOP-18 NSCLC): > 100 µM; TGI (DMS 273 small cell lung): > 100 µM; TGI (RXF-631 renal): > 100 µM; TGI (M19-MEL melanoma): > 100 µM

Question: How did the TGI (XF 498 CNS) turn out when COc1ccc(C2c3cc(OC)c(OC)cc3C(Cc3ccc([N+](=O)[O-])cc3)C2c2ccc([N+](=O)[O-])cc2)cc1OC (centres undefined) was run?
Answer: The TGI was over 100 µM.

Question: And the TGI (DMS 114 small cell lung)?
Answer: The TGI was over 100 µM.

Question: What about the TGI (DMS 273 small cell lung) of the same molecule?
Answer: The TGI was over 100 µM.

Question: And the TGI (RXF-631 renal)?
Answer: Its TGI is over 100 µM.

Question: And the TGI (M19-MEL melanoma)?
Answer: The TGI was over 100 µM.

Question: What does the source list for COc1cc(C)c2c(c1C)OC(=O)c1c(C)c(Cl)c(O)c(C=O)c1O2?
Answer: TGI (XF 498 CNS): 49.5 µM; TGI (DMS 273 small cell lung): 37.2 µM; TGI (RXF-631 renal): 57.1 µM

Question: With O=c1[nH]c2cc(Cl)ccc2nc1/C(=N\O)C(O)c1ccc(Cl)cc1Cl (centres undefined) as the molecule, how does the TGI (XF 498 CNS) read?
Answer: The TGI was over 100 µM.

Question: What about the TGI (DMS 114 small cell lung) of the same molecule?
Answer: Its TGI is over 100 µM.

Question: And the TGI (DMS 273 small cell lung)?
Answer: Its TGI is over 100 µM.

Question: And the TGI (RXF-631 renal)?
Answer: The TGI was over 100 µM.

Question: What about the TGI (M19-MEL melanoma) of the same molecule?
Answer: Its TGI is over 100 µM.

Question: CCOC(=N)CC(=O)Nc1cccc(C)c1C was tested. Which TGI (XF 498 CNS) did it give?
Answer: Its TGI is over 100 µM.

Question: And the TGI (DMS 273 small cell lung)?
Answer: The TGI was over 100 µM.

Question: And the TGI (RXF-631 renal)?
Answer: Its TGI is over 100 µM.

Question: What about the TGI (M19-MEL melanoma) of the same molecule?
Answer: The TGI was over 100 µM.

Question: For CCCCOC(=O)NC(=O)c1cn(CCCOC(=O)NCCCCCCNC(=O)OCCCn2cc(C(=O)NC(=O)OCCCC)c(=O)[nH]c2=O)c(=O)[nH]c1=O, which TGI (XF 498 CNS) is on record?
Answer: The TGI was 93.1 µM.

Question: What about the TGI (DMS 114 small cell lung) of the same molecule?
Answer: The TGI was over 100 µM.

Question: What about the TGI (HOP-18 NSCLC) of the same molecule?
Answer: Its TGI is over 100 µM.

Question: And the TGI (DMS 273 small cell lung)?
Answer: The TGI was over 100 µM.

Question: What about the TGI (RXF-631 renal) of the same molecule?
Answer: Its TGI is over 100 µM.

Question: And the TGI (M19-MEL melanoma)?
Answer: Its TGI is over 100 µM.

Question: How did the TGI (XF 498 CNS) turn out when COC(=O)/C(C=O)=C/Sc1ccccc1 was run?
Answer: Its TGI is over 100 µM.

Question: What about the TGI (DMS 114 small cell lung) of the same molecule?
Answer: The TGI was 41 µM.

Question: What about the TGI (HOP-18 NSCLC) of the same molecule?
Answer: The TGI was over 100 µM.

Question: What about the TGI (DMS 273 small cell lung) of the same molecule?
Answer: The TGI was 53.2 µM.

Question: What about the TGI (RXF-631 renal) of the same molecule?
Answer: Its TGI is 45.7 µM.

Question: And the TGI (M19-MEL melanoma)?
Answer: The TGI was 55.7 µM.

Question: Which TGI (DMS 114 small cell lung) does the source give for CN[C@@H](C)[C@H](NC)c1ccccc1 here?
Answer: The TGI was over 100 µM.

Question: What about the TGI (HOP-18 NSCLC) of the same molecule?
Answer: The TGI was over 100 µM.

Question: What about the TGI (DMS 273 small cell lung) of the same molecule?
Answer: The TGI was over 100 µM.

Question: What about the TGI (RXF-631 renal) of the same molecule?
Answer: Its TGI is over 100 µM.

Question: What about the TGI (M19-MEL melanoma) of the same molecule?
Answer: The TGI was over 100 µM.

Question: Which TGI (XF 498 CNS) does the source give for C=C1C[C@]23CCC4C(C)(C)C(=O)CC[C@]4(C)C2C[C@H]1C(O)C3=O (some centres undefined) here?
Answer: The TGI was over 75 µM.

Question: And the TGI (HOP-18 NSCLC)?
Answer: The TGI was over 75 µM.

Question: And the TGI (RXF-631 renal)?
Answer: The TGI was over 75 µM.

Question: And the TGI (M19-MEL melanoma)?
Answer: Its TGI is over 75 µM.

Question: Which results are given for CC1(C)O/C(=C\c2ccccc2)C(=O)/C(=C/c2ccccc2)O1?
Answer: TGI (XF 498 CNS): 54.4 µM; TGI (DMS 114 small cell lung): 48.1 µM; TGI (HOP-18 NSCLC): > 100 µM; TGI (DMS 273 small cell lung): > 100 µM; TGI (RXF-631 renal): > 100 µM; TGI (M19-MEL melanoma): > 100 µM

Question: Which TGI (XF 498 CNS) does the source give for O=C(Nc1cc(Cl)ccc1Cl)C(=O)C(c1cnc2ccccc2n1)[N+](=O)[O-] (centres undefined) here?
Answer: The TGI was over 100 µM.

Question: What about the TGI (DMS 114 small cell lung) of the same molecule?
Answer: Its TGI is over 100 µM.

Question: And the TGI (HOP-18 NSCLC)?
Answer: Its TGI is over 100 µM.

Question: And the TGI (RXF-631 renal)?
Answer: Its TGI is over 100 µM.

Question: And the TGI (M19-MEL melanoma)?
Answer: The TGI was over 100 µM.
